Measured values published in patent US8293979B2, “Weed controller metabolism proteins, genes, thereof and use of the same” (Sumitomo Chemical Company, Limited, priority 2001, dated 2012).

Tests used:
[1] = test system: present invention protein (A1); assay: Metabolism of compounds by the present invention protein (A1), reaction solution, HPLC; assay type: in vitro ADME, Streptomyces phaeochromogenes IFO12898; conditions: 5 ppm of compound, components A, B, C, 20 μl supernatant fraction of Example 4(2), 30° C. for 10 minutes
Procedure: There was prepared 100 μl of a reaction solution of 50 mM potassium phosphate buffer (pH7.0) containing 5 ppm of compound (XII), 3 mM of […] (hereinafter, referred to as “component A”) (Oriental Yeast Company), 1 mg/ml of a ferredoxin derived from spinach (hereinafter referred to as “component B”) (Sigma Company), 0.15 U/ml of ferredoxin reductase (hereinafter, referred to as “component C”) (Sigma Company) and 20 μl of the supernatant fraction recovered in Example 4(2). The reaction solution was maintained at 30° C. for 10 minutes. Further, there was prepared and maintained similarly 100 μl of a reaction solution of a 50 mM potassium phosphate buffer (pH 7.0) having no addition of at least one component utilized in the composition of the above reaction solution, selected from component A, component B, component C and the supernatant fraction prepared in Example 4(2). Ten microliters (10 μl) of 2N HCl and 500 μl of ethyl acetate were added and mixed into each of the reaction solutions after the maintenance. The resulting reaction solutions were centrifuged at 8,000×g to recover 490 μl of the ethyl acetate layer. After drying the ethyl acetate layers under reduced pressure, the residue was dissolved in 100 μl of 50 mM of potassium phosphate buffer (pH7.0). Forty microliters (40 μl) of the fraction solutions (hereinafter, the fraction solution derived from the reaction solution containing component A, component B, component C and 20 μl of supernatant fraction recovered in Example 4(2) is referred to as “(XII) metabolism solution (A1);” further, the fraction solution derived from the reaction solution containing no component A, no component B, no component C and no supernatant fraction recovered in Example 4(2) is referred to as “(XII) control solution (A1)”) were analyzed on a HPLC. Compared to the concentration of compound (XII) detected from (XII) control solution (A1), the concentration of compound (XII) detected from (XII) metabolism solution (A1) was lower. Further a peak, which was not detected from the (XII) control solution (A1), was detected from the (XII) metabolism solution (A1). Mass spectrometry was conducted for the compound contained in such a peak. The mass of the compound contained in such a peak was 14 smaller than the mass of compound (XII).
Other than utilizing 5 ppm of compound (XIII) instead of 5 ppm of compound (XII), reaction solutions were prepared and maintained similarly to the method described in Example 41(2). […] Compared to the concentration of compound (XIII) detected from (XIII) control solution (A1), the concentration of compound (XIII) detected from (XIII) metabolism solution (A1) was lower. Further a peak, which was not detected from the (XIII) control solution (A1), was detected from the (XIII) metabolism solution (A1). […]

present protein (A10) = target: T1, present protein (A10) (Streptomyces griseolus, UniProt P18326); assay type: in vitro ADME, Streptomyces griseolus ATCC 11796; conditions: 5 ppm of compound, components A, B, C, 20 μl supernatant fraction of Example 10(2), 30° C. for 10 minutes, HPLC
T1 construct: made in house; host or cells: E. coli JM109 carrying pKSN11796 or pKSN11796F; 150,000 x g supernatant (crude extract)

[2] = test system: present invention protein (A12); assay: Metabolism of compounds by the present invention protein (A12), reaction solution, HPLC; assay type: in vitro ADME, Streptomyces tsusimaensis IFO 13782; conditions: 5 ppm of compound, components A, B, C, 20 μl supernatant fraction of Example 34(2), 30° C. for 10 minutes
[3] = test system: present invention protein (A13); assay: Metabolism of compounds by the present invention protein (A13), reaction solution, HPLC; assay type: in vitro ADME, Streptomyces thermocoerulesces IFO 14273t; conditions: 5 ppm of compound, components A, B, C, 20 μl supernatant fraction of Example 36(2), 30° C. for 10 minutes
[4] = test system: present invention protein (A15); assay: Metabolism of compounds by the present invention protein (A15), reaction solution, HPLC; assay type: in vitro ADME, Streptomyces olivochromogenes IFO 12444; conditions: 5 ppm of compound, components A, B, C, 20 μl supernatant fraction of Example 40(2), 30° C. for 10 minutes
[5] = test system: present invention protein (A17); assay: Metabolism of compounds by the present invention protein (A17), reaction solution, HPLC; assay type: in vitro ADME, Streptomyces griseus ATCC 10137; conditions: 12.5 ppm of compound, components A, B, C, 20 μl supernatant fraction of Example 51(2), 30° C. for 10 minutes
[6] = test system: present invention protein (A18); assay: Metabolism of compounds by the present invention protein (A18), reaction solution, HPLC; assay type: in vitro ADME, Streptomyces achromogenes IFO 12735; conditions: 12.5 ppm of compound, components A, B, C, 20 μl supernatant fraction of Example 53(2), 30° C. for 10 minutes
[7] = test system: present invention protein (A20); assay: Metabolism of compounds by the present invention protein (A20), reaction solution, HPLC; assay type: in vitro ADME, Streptomyces lanatus IFO 12787T; conditions: 12.5 ppm of compound, components A, B, C, 20 μl supernatant fraction of Example 57(2), 30° C. for 10 minutes
[8] = test system: present invention protein (A21); assay: Metabolism of compounds by the present invention protein (A21), reaction solution, HPLC; assay type: in vitro ADME, Streptomyces misawanensis IFO 13855T; conditions: 12.5 ppm of compound, components A, B, C, 20 μl supernatant fraction of Example 59(2), 30° C. for 10 minutes
[9] = test system: present invention protein (A23); assay: Metabolism of compounds by the present invention protein (A23), reaction solution, HPLC; assay type: in vitro ADME, Streptomyces roseorubens IFO 13682T; conditions: 12.5 ppm of compound, components A, B, C, 20 μl supernatant fraction of Example 63(2), 30° C. for 10 minutes
[10] = test system: present invention protein (A25); assay: Metabolism of compounds by the present invention protein (A25), reaction solution, HPLC; assay type: in vitro ADME, Streptomyces steffisburgensis IFO 13446T; conditions: 12.5 ppm of compound, components A, B, C, 20 μl supernatant fraction of Example 67(2), 30° C. for 10 minutes

T1 sequence (P18326 whole entry H308Q): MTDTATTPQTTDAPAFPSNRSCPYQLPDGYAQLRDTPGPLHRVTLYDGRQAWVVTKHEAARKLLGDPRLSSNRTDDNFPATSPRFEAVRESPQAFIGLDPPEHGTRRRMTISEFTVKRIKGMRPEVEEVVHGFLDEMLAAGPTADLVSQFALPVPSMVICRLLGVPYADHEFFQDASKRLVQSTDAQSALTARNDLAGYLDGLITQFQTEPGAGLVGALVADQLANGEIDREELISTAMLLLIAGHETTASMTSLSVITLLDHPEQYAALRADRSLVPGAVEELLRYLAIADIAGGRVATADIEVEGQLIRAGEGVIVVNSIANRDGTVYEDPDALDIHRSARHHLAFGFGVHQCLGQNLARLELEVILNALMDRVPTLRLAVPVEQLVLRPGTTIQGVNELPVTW

Cn1c(C(F)(F)F)cc(=O)n(-c2cc(Oc3ccccc3OCC(=O)O)c(Cl)cc2F)c1=O [compound (XIII)]
lower: concentration of the compound detected from metabolism solution (A1) compared to control solution (A1) [1] | concentration of the compound detected from metabolism solution (A10) compared to control solution (A10) (present protein (A10)) | concentration of the compound detected from metabolism solution (A12) compared to control solution (A12) [2] | concentration of the compound detected from metabolism solution (A13) compared to control solution (A13) [3] | concentration of the compound detected from metabolism solution (A15) compared to control solution (A15) [4] | concentration of the compound detected from metabolism solution (A17) compared to control solution (A17) [5] | concentration of the compound detected from metabolism solution (A18) compared to control solution (A18) [6] | concentration of the compound detected from metabolism solution (A20) compared to control solution (A20) [7] | concentration of the compound detected from metabolism solution (A21) compared to control solution (A21) [8] | concentration of the compound detected from metabolism solution (A23) compared to control solution (A23) [9] | concentration of the compound detected from metabolism solution (A25) compared to control solution (A25) [10]

Cn1c(C(F)(F)F)cc(=O)n(-c2cc(Oc3cccnc3OCC(=O)O)c(Cl)cc2F)c1=O [compound (XII)]
lower: concentration of the compound detected from metabolism solution (A1) compared to control solution (A1) [1] | concentration of the compound detected from metabolism solution (A10) compared to control solution (A10) (present protein (A10)) | concentration of the compound detected from metabolism solution (A12) compared to control solution (A12) [2] | concentration of the compound detected from metabolism solution (A13) compared to control solution (A13) [3] | concentration of the compound detected from metabolism solution (A15) compared to control solution (A15) [4] | concentration of the compound detected from metabolism solution (A17) compared to control solution (A17) [5] | concentration of the compound detected from metabolism solution (A18) compared to control solution (A18) [6] | concentration of the compound detected from metabolism solution (A20) compared to control solution (A20) [7] | concentration of the compound detected from metabolism solution (A21) compared to control solution (A21) [8] | concentration of the compound detected from metabolism solution (A23) compared to control solution (A23) [9] | concentration of the compound detected from metabolism solution (A25) compared to control solution (A25) [10]
